Reference: US9126979B2, “Compounds for inhibiting the interaction of BCL2 with binding partners” (Novartis AG, priority 2011, dated 2015)

Key:
[1] = target: BCL-2 binding to biotinylated BAD peptide (Homo sapiens (Human), UniProt P10415); experiment: SPR (Biacore) solution inhibition assay, BCL-2 binding to BAD peptide surface; details: read-out: BCL2_SPR IC50 BAD
Text: (§1) The present method includes utility of a Surface plasmon resonance (SPR)-based biosensor (Biacore™′ GE Healthcare, Uppsala, Sweden) to characterize BCL-2 inhibitors.
(§2) Biacore™ utilizes the phenomenon of surface plasmon resonance (SPR) to detect and measure binding interactions. In a typical Biacore experiment, one of the interacting molecules (ligand) is immobilized on a flexible dextran matrix while the interacting partner (analyte) is allowed to flow across that surface. A binding interaction results in an increase in mass on the sensor surface and a corresponding direct change in the refractive index of the medium in the vicinity of the sensor surface. Changes in refractive index or signal are recorded in resonance units (R.U.) Signal changes due to association and dissociation of complexes are monitored in a non-invasive manner, continuously and in real-time, the results of which are reported in the form of a sensorgram.
(§3) The SPR assay is configured to examine solution inhibition of BCL-2 binding to peptide derivatized sensor surfaces to generate IC50 values as a measure of inhibitor potency.
(§4) Biacore™ A100 (GE Healthcare, Uppsala, Sweden) was used to conduct all experiments reported herein. Sensor surface preparation and all interaction analyses experiments were performed at 25° C. Reagents were purchased from GE Healthcare. Running buffer containing 10 mM Hepes, pH7.4, 150 mM sodium chloride, 1.25 mM Dithiothreitol, 3% Dimethyl sulfoxide and 0.05% polysorbate 20 were utilized throughout all analyses.
(§5) Biotinylated BAK, BAD and NOXA peptides were diluted to 10 nM in running buffer and captured onto a sensor surface pre-derivatized with streptavidin (sensor chip SA) to peptide surface densities in the range 50-100 R.U. Peptide captured surfaces were blocked with 50004 PEO2-Biotin.
(§6) Interaction analyses were performed by first equilibrating each sample within a 6 point three fold compound dilution series in the range […] with 56 nM BCL-2 for one hour during instrument start-up procedures. Protein compound mixtures were then injected over each peptide surface in parallel for 60 seconds at a flow-rate of 30 μL/min. 56 nM BCL-2 control samples were also prepared and run at regular intervals during the assay. Surface regeneration was performed at the end of each analysis cycle by two 30 second injections of 10 mM Glycine, pH 2.5, 1M Sodium Chloride, 0.05% polysorbate 20. Samples and control compound samples were run in duplicate and controls are also run at regular intervals during the assay to monitor surface and assay performance.
(§7) Data analyses are carried out using Biacore™ A100 evaluation software v1.1 to validate assay quality. Binding level report points were used relative to BCL-2 control samples to calculate % inhibition values for each compound protein mixture. […] The range of data shown in table 1 represents the high and low IC50 values obtained from multiple experiments.

[2] = target: BCL-2 binding to biotinylated BAK peptide (Homo sapiens (Human), UniProt P10415); experiment: SPR (Biacore) solution inhibition assay, BCL-2 binding to BAK peptide surface; details: read-out: BCL2_SPR IC50 BAK
Sequence of BCL-2 binding to biotinylated BAK peptide (P10415 whole entry): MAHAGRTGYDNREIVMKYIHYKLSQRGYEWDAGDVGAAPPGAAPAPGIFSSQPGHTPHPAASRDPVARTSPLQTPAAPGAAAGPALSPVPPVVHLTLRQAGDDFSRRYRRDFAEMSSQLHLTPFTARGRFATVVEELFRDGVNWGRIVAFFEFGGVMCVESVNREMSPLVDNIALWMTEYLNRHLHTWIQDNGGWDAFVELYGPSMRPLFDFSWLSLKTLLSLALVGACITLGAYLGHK
Text: as §1, §2, §3, §4, §5, §6, §7

Sequence of BCL-2 binding to biotinylated BAD peptide (P10415 whole entry): as above

SMILES | IC50 [1] [nM] | IC50 [2] [nM]
CCCCN(CCCC)C(=O)c1nn(-c2ccc(OCC(=O)OCC)cc2C(=O)N2Cc3ccccc3C[C@H]2CO)c(C)c1Cl [Example 1, [4-(4-Chloro-3-dibutylcarbamoyl-5-methyl-pyrazol-1-yl)-3-((S)-3-hydroxymethyl-3,4-dihydro-1H-isoquinoline-2-carbonyl)-phenoxy]-acetic acid ethyl ester] | 509 to 515 | 363 to 405
CCCCN(CCCC)C(=O)c1cc(C)n(-c2cc(OC)ccc2C(=O)N2Cc3ccccc3C[C@H]2CO)n1 [Example 12] | 447 to 493 | 267 to 299
CCCCN(CCCC)C(=O)c1nn(-c2ccc(OCC(=O)O)cc2C(=O)N2Cc3ccccc3C[C@H]2CO)c(C)c1Cl [Example 2, [4-(4-Chloro-3-dibutylcarbamoyl-5-methyl-pyrazol-1-yl)-3-((S)-3-hydroxymethyl-3,4-dihydro-1H-isoquinoline-2-carbonyl)-phenoxy]-acetic acid] | 149 to 153 | 132 to 138
CCCCN(CCCC)C(=O)c1nn(-c2ccc(O)cc2C(=O)N2Cc3ccccc3C[C@H]2CO)c(C)c1Cl [Example 9] | 618 to 629 | 403 to 441
CCCCN(CCCC)C(=O)c1cc(C)n(-c2cc(O)ccc2C(=O)N2Cc3ccccc3C[C@H]2CO)n1 [Example 11] | 258 to 299 | 238 to 256
CCCCN(CCCC)C(=O)c1nn(-c2ccc(OC)cc2C(=O)N2Cc3ccccc3C[C@H]2CO)c(C)c1Cl [Example 10] | 1370 to 1690 | 815 to 969

Results, then the compound that gave them:

IC50 [1] [nM] | IC50 [2] [nM] | SMILES
2090 to 2100 | 1270 to 1300 | CCCCN(CCCC)C(=O)c1cc(C)n(-c2cc(OCC(=O)Nc3ccccc3)ccc2C(=O)N2Cc3ccccc3C[C@H]2CO)n1 [Example 6, 1-[2-((S)-3-Hydroxymethyl-3,4-dihydro-1H-isoquinoline-2-carbonyl)-5-phenylcarbamoylmethoxy-phenyl]-5-methyl-1H-pyrazole-3-carboxylic acid dibutylamide]
2880 to 3000 | 1700 to 1740 | CCCCN(CCCC)C(=O)c1cc(C)n(-c2cc(OCC(=O)Nc3ccccc3F)ccc2C(=O)N2Cc3ccccc3C[C@H]2CO)n1 [Example 8]
1170 to 1360 | 771 to 776 | CCCCN(CCCC)C(=O)c1cc(C)n(-c2cc(OCC(=O)OCC)ccc2C(=O)N2Cc3ccccc3C[C@H]2CO)n1 [Example 4, [3-(3-Dibutylcarbamoyl-5-methyl-pyrazol-1-yl)-4-((S)-3-hydroxymethyl-3,4-dihydro-1H-isoquinoline-2-carbonyl)-phenoxy]-acetic acid ethyl ester]
433 to 477 | 406 to 437 | CCCCN(CCCC)C(=O)c1nn(-c2ccc(OCC(=O)Nc3ccccc3)cc2C(=O)N2Cc3ccccc3C[C@H]2CO)c(C)c1Cl [Example 3, 4-Chloro-1-[2-((S)-3-hydroxymethyl-3,4-dihydro-1H-isoquinoline-2-carbonyl)-4-phenylcarbamoylmethoxy-phenyl]-5-methyl-1H-pyrazole-3-carboxylic acid dibutylamide]
1520 to 1560 | 1250 to 1320 | CCCCN(CCCC)C(=O)c1cc(C)n(-c2cc(OCC(=O)OCc3ccccc3)ccc2C(=O)N2Cc3ccccc3C[C@H]2CO)n1 [Example 7, [3-(3-Dibutylcarbamoyl-5-methyl-pyrazol-1-yl)-4-((S)-3-hydroxymethyl-3,4-dihydro-1H-isoquinoline-2-carbonyl)-phenoxy]-acetic acid benzyl ester]
98.9 to 105 | 82.3 to 87.3 | CCCCN(CCCC)C(=O)c1cc(C)n(-c2cc(OCC(=O)O)ccc2C(=O)N2Cc3ccccc3C[C@H]2CO)n1 [Example 5, [3-(3-Dibutylcarbamoyl-5-methyl-pyrazol-1-yl)-4-((S)-3-hydroxymethyl-3,4-dihydro-1H-isoquinoline-2-carbonyl)-phenoxy]-acetic acid]
